Data as given in patent publication US11541055B2, “Inhibitors of human immunodeficiency virus replication” (ViiV Healthcare UK (No. 5) LIMITED, priority 2018, dated 2023).

What was measured:
[1] = test system: recombinant NL4-3 virus (Renilla luciferase) in MT-2 cells; experiment: HIV cell culture assay (antiviral activity, luciferase readout); format: cell-based; conditions: Renilla, NL43
Experimental: HIV cell culture assay—MT-2 cells, 293T cells and the proviral DNA clone of NL4-3 virus were obtained from the NIH AIDS Research and Reference Reagent Program. MT-2 cells were propagated in RPMI 1640 media supplemented with 10% heat inactivated fetal bovine serum (FBS), […]. The 293T cells were propagated in DMEM media supplemented with 10% heat inactivated FBS, […] penicillin G and […] streptomycin. A recombinant NL40.3 proviral clone, in which a section of the nef gene was replaced with the Renilla luciferase gene, was used to make the reference virus used in these studies. The recombinant virus was prepared through transfection of the recombinant NL4-3 proviral clone into 293T cells using Transit-293 Transfection Reagent from Minis Bio LLC (Madison, Wis.). Supernatent was harvested after 2-3 days and the amount of virus present was titered in MT-2 cells using luciferase enzyme activity as a marker by measuring luciferase enzyme activity. Luciferase was quantitated using the EnduRen Live Cell Substrate from Promega (Madison, Wis.). Antiviral activities of compounds toward the recombinant virus were quantified by measuring luciferase activity in MT-2 cells infected for 4-5 days with the recombinant virus in the presence of serial dilutions of the compound.
The 50% effective concentration (EC50) was calculated by using the exponential form of the median effect equation where (Fa)=1/[1+(ED50/drug conc.)m] (Johnson V A, Byington R T. Infectivity Assay. In Techniques in HIV Research. ed. Aldovini A, Walker B D. 71-76. New York: Stockton Press. 1990). The 50% inhibitory concentration (EC50) was calculated by using the exponential form of the median effect equation where percent inhibition=1/[1+(EC50/drug concentration)m], where m is a parameter that reflects the slope of the concentration-response curve.

[2] = Compound cytotoxicity, XTT-based colorimetric assay; format: cell-based; conditions: human; uninfected MT2 cells, day 4, XTT
Experimental: Compound cytotoxicity and the corresponding CC50 values were determined using the same protocol as described in the antiviral assay except that uninfected cells were used. Cytotoxicity was assessed on day 4 in uninfected MT2 cells by using a XTT (2,3-bis[2-Methoxy-4-nitro-5-sulfophenyl]-2H-tetrazolium-5-carboxyanilide inner salt)-based colorimetric assay (Sigma-Aldrich, St Louis, Mo.).

SMILES | EC50 [1] [nM] | CC50 at 4 days [2] [nM]
CS(=O)(=O)Nc1nn(CC(F)(F)F)c2c(-n3c([C@H](Cc4cc(F)cc(F)c4)NC(=O)Cn4nc(C(F)F)c5c4C(F)(F)[C@@H]4C[C@H]54)nc4cc(-c5ncccc5S(C)(=O)=O)ccc4c3=O)ccc(Cl)c12 (atropisomer, axis not shown) [Example 112] | 0.075 | > 500
O=C(Cn1nc(C(F)F)c2c1C(F)(F)[C@@H]1C[C@H]21)N[C@@H](Cc1cc(F)cc(F)c1)c1nc2cc(-c3cccnn3)ccc2c(=O)n1-c1ccc(Cl)c2c(NS(=O)(=O)C3CC3)nn(CC(F)F)c12 (atropisomer, axis not shown; (P)) [Example 89, N—((S)-1-((3P)-3-(4-chloro-3-(cyclopropanesulfonamido)-1-(2,2-difluoroethyl)-1H-indazol-7-yl)-4-oxo-7-(pyridazin-3-yl)-3,4-dihydroquinazolin-2-yl)-2-(3,5-difluorophenyl)ethyl)-2-((3bS,4aR)-3-(difluoromethyl)-5,5-difluoro-3b,4,4a,5-tetrahydro-1H-cyclopropa[3,4]cyclopenta[1,2-c]pyrazol-1-yl)acetamide] | 0.075 | > 500
CCc1cc(CC)nc(-c2ccc3c(=O)n(-c4ccc(Cl)c5c(NS(C)(=O)=O)nn(C)c45)c([C@H](Cc4cc(F)cc(F)c4)NC(=O)Cn4nc(C(F)F)c5c4C(F)(F)[C@@H]4C[C@H]54)nc3c2)n1 (atropisomer, axis not shown; (P)) [Example 38, N—((S)-1-((3P)-3-(4-chloro-1-methyl-3-(methylsulfonamido)-1H-indazol-7-yl)-7-(4,6-diethylpyrimidin-2-yl)-4-oxo-3,4-dihydroquinazolin-2-yl)-2-(3,5-difluorophenyl)ethyl)-2-((3bS,4aR)-3-(difluoromethyl)-5,5-difluoro-3b,4,4a,5-tetrahydro-1H-cyclopropa[3,4]cyclopenta[1,2-c]pyrazol-1-yl)acetamide] | 0.21 | > 500
COc1cnc(C)nc1-c1ccc2c(=O)n(-c3ccc(Cl)c4c(NS(C)(=O)=O)nn(C)c34)c([C@H](Cc3cc(F)cc(F)c3)NC(=O)Cn3nc(C(F)F)c4c3C(F)(F)[C@@H]3C[C@H]43)nc2c1 (atropisomer, axis not shown; (P)) [Example 9, N—((S)-1-((3P)-3-(4-chloro-1-methyl-3-(methylsulfonamido)-1H-indazol-7-yl)-7-(5-methoxy-2-methylpyrimidin-4-yl)-4-oxo-3,4-dihydroquinazolin-2-yl)-2-(3,5-difluorophenyl)ethyl)-2-((3bS,4aR)-3-(difluoromethyl)-5,5-difluoro-3b,4,4a,5-tetrahydro-1H-cyclopropa[3,4]cyclopenta[1,2-c]pyrazol-1-yl)acetamide] | 0.058 | > 500
Cc1ccc(-c2ccc3c(=O)n(-c4ccc(Cl)c5c(NS(C)(=O)=O)nn(CC(F)F)c45)c([C@H](Cc4cc(F)cc(F)c4)NC(=O)Cn4nc(C(F)F)c5c4C(F)(F)[C@@H]4C[C@H]54)nc3c2)nn1 (atropisomer, axis not shown) [Example 134, N-[(1S)-1-{3-[4-chloro-1-(2,2-difluoroethyl)-3-methanesulfonamido-1H-indazol-7-yl]-7-(6-methylpyridazin-3-yl)-4-oxo-3,4-dihydroquinazolin-2-yl}-2-(3,5-difluorophenyl)ethyl]-2-[(2S,4R)-9-(difluoromethyl)-5,5-difluoro-7,8-diazatricyclo[4.3.0.0^2,^4]nona-1(6),8-dien-7-yl]acetamide] | 0.032 | > 500
